Results from patent publication US10219516B2, “Molecules having pesticidal utility, and intermediates, compositions, and processes, related thereto” (priority 2015, dated 2019).
Where a name gives a salt, the structure may show the parent alone.

Columns and labels:
Format in all cases: in vivo
[1] = system: Beet Armyworm (Spodoptera exigua, LAPHEG); experiment: Bioassay on Beet Armyworm (BAW), 128-well diet tray assay; details: Beet Armyworm, 128-well diet tray assay, read-out: BAW rating
In short: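 Diet in each of eight wells received 50 μg/cm^2 of test molecule (90:10 acetone-water, dried), then one to five second-instar larvae were added. Mortality (%) was scored after five to seven days at 25° C. under 14:10 light-dark and averaged across the wells.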

[2] = system: Cabbage Looper (Trichoplusia ni, TRIPNI); experiment: Bioassay on Cabbage Looper (CL), 128-well diet tray assay; details: Trichoplusia ni; Cabbage Looper, 128-well diet tray assay; read-out: CL rating
In short: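 Second-instar larvae, one to five per well, placed on artificial diet treated with 50 μg/cm^2 test molecule in 90:10 acetone-water, dried before infestation. Held 5–7 days at 25° C, 14:10 light-dark; percent mortality averaged over eight wells.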

[3] = system: Yellow Fever Mosquito (Aedes aegypti, AEDSAE); experiment: Bioassay on Yellow Fever Mosquito (YFM), 96-well plate larval assay; details: Yellow Fever Mosquito, 96-well plate larval assay
In short: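 Aedes aegypti larvae (about 1 day old) in liver-powder water were added to plates dispensed from DMSO master plates (4000 ppm stock) diluted with 90:10 water/acetone; six replicate plates per master. Lidded plates were held at room temperature for 3 days, then each well was scored for mortality.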

Row | SMILES | pest or weed control at 50 µg/cm2 [1] [%] | pest or weed control at 50 µg/cm2 [2] [%] | YFM rating [3]
1 | CN(C(=O)c1cc(NC(=O)[C@H]2[C@H](c3ccc(C(F)F)c(Cl)c3)C2(Cl)Cl)ccc1Cl)c1ccc(F)cc1 (relative stereo) [F596, 2-Chloro-5-(trans-2,2-dichloro-3-(3-chloro-4-(difluoromethyl)phenyl)cyclopropane-1-carboxamido)-N-(4-fluorophenyl)-N-methylbenzamide] | 50 to 100 | 50 to 100 | A (80-100)
2 | CN(C(=O)c1cc(NC(=O)[C@H]2[C@H](c3ccc(C(F)F)c(F)c3)C2(Cl)Cl)ccc1Cl)c1ccc(F)cc1 (relative stereo) [F597, 2-Chloro-5-(trans-2,2-dichloro-3-(4-(difluoromethyl)-3-fluorophenyl)cyclopropane-1-carboxamido)-N-(4-fluorophenyl)-N-methylbenzamide] | 50 to 100 | 50 to 100 | A (80-100)
3 | CN(C(=O)c1cc(NC(=O)[C@H]2[C@H](c3cccc(C(F)F)c3)C2(Cl)Cl)ccc1Cl)c1ccc(F)cc1 (relative stereo) [F598, 2-Chloro-5-(trans-2,2-dichloro-3-(3-(difluoromethyl)phenyl)cyclopropane-1-carboxamido)-N-(4-fluorophenyl)-N-methylbenzamide] | 50 to 100 | 50 to 100 | A (80-100)
4 | CN(C(=O)c1cc(NC(=O)[C@H]2[C@H](c3ccc(C(F)F)cc3)C2(Cl)Cl)ccc1Cl)c1ccc(F)cc1 (relative stereo) [F599, 2-Chloro-5-(trans-2,2-dichloro-3-(4-(difluoromethyl)phenyl)cyclopropane-1-carboxamido)-N-(4-fluorophenyl)-N-methylbenzamide] | 50 to 100 | 50 to 100 | A (80-100)
5 | O=C(Nc1ccc(F)cc1F)c1cc(NC(=O)[C@H]2[C@H](c3ccc(F)c(Cl)c3)C2(Cl)Cl)ccc1Cl (relative stereo) [PF6, trans-2-Chloro-5-(2,2-dichloro-3-(3-chloro-4-fluorophenyl)cyclopropane-1-carboxamido)-N-(2,4-difluorophenyl)benzamide] | 50 to 100 | 50 to 100 | A (80-100)
6 | CCc1ccc(NC(=O)[C@H]2[C@H](c3cc(Cl)cc(Cl)c3)C2(Cl)Cl)cc1C(=O)Nc1ccc(F)cc1 (relative stereo) [PF8, trans-5-(2,2-Dichloro-3-(3,5-dichlorophenyl)cyclopropanecarboxamido)-2-ethyl-N-(4-fluorophenyl)benzamide] | 50 to 100 | 50 to 100 | A (80-100)
7 | C=Cc1ccc(NC(=O)[C@H]2[C@H](c3cc(Cl)cc(Cl)c3)C2(Cl)Cl)cc1C(=O)Nc1ccc(F)cc1 (relative stereo) [PF9, trans-5-(2,2-Dichloro-3-(3,5-dichlorophenyl)cyclopropanecarboxamido)-N-(4-fluorophenyl)-2-vinylbenzamide] | 50 to 100 | 50 to 100 | A (80-100)
8 | O=C(Nc1ccc(SCC(F)(F)F)cc1)c1cc(NC(=O)[C@H]2[C@H](c3cc(Cl)cc(Cl)c3)C2(Cl)Cl)ccc1Cl (relative stereo) [PF10, trans-2-Chloro-5-(2,2-dichloro-3-(3,5-dichlorophenyl)cyclopropane-1-carboxamido)-N-(4-((2,2,2-trifluoroethyl)thio)phenyl)benzamide] | 50 to 100 | 50 to 100 | B (More than 0-Less than 80)
9 | O=C(Nc1ccc(SC(F)(F)F)cc1)c1cc(NC(=O)[C@H]2[C@H](c3cc(Cl)cc(Cl)c3)C2(Cl)Cl)ccc1Cl (relative stereo) [PF11, trans-2-Chloro-5-(2,2-dichloro-3-(3,5-dichlorophenyl)cyclopropane-1-carboxamido)-N-(4-((trifluoromethyl)thio)phenyl)benzamide] | 50 to 100 | 50 to 100 | B (More than 0-Less than 80)
10 | CC(C)(C)OC(=O)Nc1ccc(NC(=O)c2cc(NC(=O)[C@H]3[C@H](c4cc(Cl)cc(Cl)c4)C3(Cl)Cl)ccc2Cl)cc1 (relative stereo) [PF13, trans-tert-Butyl-(4-(2-chloro-5-(2,2-dichloro-3-(3,5-dichlorophenyl)cyclopropane-1-carboxamido)benzamido)phenyl)carbamate] | 50 to 100 | 50 to 100 | A (80-100)
11 | C#Cc1ccc(NC(=O)c2cc(NC(=O)[C@H]3[C@H](c4cc(Cl)cc(Cl)c4)C3(Cl)Cl)ccc2Cl)cc1 (relative stereo) [PF15, trans-2-Chloro-5-(2,2-dichloro-3-(3,5-dichlorophenyl)cyclopropane-1-carboxamido)-N-(4-ethynylphenyl)benzamide] | 50 to 100 | 50 to 100 | B (More than 0-Less than 80)
12 | C=Cc1ccc(NC(=O)c2cc(NC(=O)[C@H]3[C@H](c4cc(Cl)cc(Cl)c4)C3(Cl)Cl)ccc2Cl)cc1 (relative stereo) [PF16, trans-2-Chloro-5-(2,2-dichloro-3-(3,5-dichlorophenyl)cyclopropane-1-carboxamido)-N-(4-vinylphenyl)benzamide] | 50 to 100 | 50 to 100 | A (80-100)
13 | O=C(Nc1ccc(S(=O)(=O)CC(F)(F)F)cc1)c1cc(NC(=O)[C@H]2[C@H](c3cc(Cl)cc(Cl)c3)C2(Cl)Cl)ccc1Cl (relative stereo) [PF17, trans-2-chloro-5-(2,2-dichloro-3-(3,5-dichlorophenyl)cyclopropane-1-carboxamido)-N-(4-((2,2,2-trifluoroethyl)sulfonyl)phenyl)benzamide] | 50 to 100 | 50 to 100 | B (More than 0-Less than 80)
14 | O=C(Nc1ccc([S+]([O-])CC(F)(F)F)cc1)c1cc(NC(=O)[C@H]2[C@H](c3cc(Cl)cc(Cl)c3)C2(Cl)Cl)ccc1Cl (relative stereo) [PF18, trans-2-Chloro-5-(2,2-dichloro-3-(3,5-dichlorophenyl)cyclopropane-1-carboxamido)-N-(4-((2,2,2-trifluoroethyl)sulfinyl)phenyl)benzamide] | 50 to 100 | 50 to 100 | B (More than 0-Less than 80)
15 | O=C(Nc1ccc(S(=O)(=O)C(F)(F)F)cc1)c1cc(NC(=O)[C@H]2[C@H](c3cc(Cl)cc(Cl)c3)C2(Cl)Cl)ccc1Cl (relative stereo) [PF19, trans-2-Chloro-5-(2,2-dichloro-3-(3,5-dichlorophenyl)cyclopropane-1-carboxamido)-N-(4-((trifluoromethyl)sulfonyl)phenyl)benzamide] | 50 to 100 | 50 to 100 | A (80-100)
16 | O=C(Nc1ccc([S+]([O-])C(F)(F)F)cc1)c1cc(NC(=O)[C@H]2[C@H](c3cc(Cl)cc(Cl)c3)C2(Cl)Cl)ccc1Cl (relative stereo) [PF20, trans-2-Chloro-5-(2,2-dichloro-3-(3,5-dichlorophenyl)cyclopropane-1-carboxamido)-N-(4-((trifluoromethyl)sulfinyl)phenyl)benzamide] | 50 to 100 | 50 to 100 | A (80-100)
17 | Cl.Nc1ccc(NC(=O)c2cc(NC(=O)[C@H]3[C@H](c4cc(Cl)cc(Cl)c4)C3(Cl)Cl)ccc2Cl)cc1 (relative stereo) [PF21, trans-N-(4-aminophenyl)-2-chloro-5-(2,2-dichloro-3-(3,5-dichlorophenyl)cyclopropane-1-carboxamido)benzamide hydrochloride] | 50 to 100 | 50 to 100 | A (80-100)
18 | CNc1ccc(NC(=O)c2cc(NC(=O)[C@H]3[C@H](c4cc(Cl)cc(Cl)c4)C3(Cl)Cl)ccc2Cl)cc1 (relative stereo) [PF22, trans-2-Chloro-5-(2,2-dichloro-3-(3,5-dichlorophenyl)cyclopropane-1-carboxamido)-N-(4-(methylamino)phenyl)benzamide hydrochloride] | 50 to 100 | 50 to 100 | A (80-100)
19 | O=C(Nc1ccc(NC(=O)C(F)(F)F)cc1)c1cc(NC(=O)[C@H]2[C@H](c3cc(Cl)cc(Cl)c3)C2(Cl)Cl)ccc1Cl (relative stereo) [PF24, trans-2-chloro-5-(2,2-dichloro-3-(3,5-dichlorophenyl)cyclopropane-1-carboxamido)-N-(4-(2,2,2-trifluoroacetamido)phenyl)benzamide] | 50 to 100 | 50 to 100 | A (80-100)
20 | O=C(CC(F)(F)F)Nc1ccc(NC(=O)c2cc(NC(=O)[C@H]3[C@H](c4cc(Cl)cc(Cl)c4)C3(Cl)Cl)ccc2Cl)cc1 (relative stereo) [PF25, trans-2-chloro-5-(2,2-dichloro-3-(3,5-dichlorophenyl)cyclopropane-1-carboxamido)-N-(4-(3,3,3-trifluoropropanamido)phenyl)benzamide] | 50 to 100 | 50 to 100 | B (More than 0-Less than 80)
